Test in all cases: Glasshouse assay for herbicidal activity (pre- and post-emergence), percentage phytotoxicity
Holding throughout (type): in vivo

Assay [1] relates to Alopecurus myosuroides (ALOMY). The conditions noted are these: Alopecurus myosuroides. The essentials: (§1)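 Damage was rated visually as percent phytotoxicity, 100% meaning total kill, 20 days after pre-emergence application (made one day post-sowing) or 15 days after post-emergence application (made about 12 days post-sowing). Plants were grown under 16 h light, 65% humidity, warm species 24/18° C, cool 20/16° C.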

Assay [2] concerns Echinochloa crus-galli (ECHCG). The settings on record: Echinochloa crus-galli. The procedure, abridged:
as §1

In a further assay the test system is Lolium perenne (LOLPE). The conditions noted are these: Lolium perenne. The procedure, abridged:
as §1

The next assay relates to Avena fatua (AVEFA). The settings on record: Avena fatua. The essentials: as §1
Setting [3] is: post-emergence, 360 h, POST-emergence, rate 250 g/ha, visual score 15 DAA (100%=total damage, 0%=no damage), read-out: Post-emergence herbicidal activity (percentage phytotoxicity) ALOMY POST.
The mark [4] stands for this setting: pre-emergence, 480 h, PRE-emergence, rate 250 g/ha, visual score 20 DAA (100%=total damage, 0%=no damage), read-out: Pre-emergence herbicidal activity (percentage phytotoxicity) ALOMY PRE.
Setting [5] is: post-emergence, 360 h, POST-emergence, rate 250 g/ha, visual score 15 DAA (100%=total damage, 0%=no damage), read-out: Post-emergence herbicidal activity (percentage phytotoxicity) ECHCG POST.
Setting [6] is: pre-emergence, 480 h, PRE-emergence, rate 250 g/ha, visual score 20 DAA (100%=total damage, 0%=no damage), read-out: Pre-emergence herbicidal activity (percentage phytotoxicity) ECHCG PRE.
The mark [7] stands for this setting: post-emergence, 360 h, POST-emergence, rate 250 g/ha, visual score 15 DAA (100%=total damage, 0%=no damage), read-out: Post-emergence herbicidal activity (percentage phytotoxicity) LOLPE POST.
[8] abbreviates: pre-emergence, 480 h, PRE-emergence, rate 250 g/ha, visual score 20 DAA (100%=total damage, 0%=no damage), read-out: Pre-emergence herbicidal activity (percentage phytotoxicity) LOLPE PRE.
[9] abbreviates: post-emergence, 360 h, POST-emergence, rate 250 g/ha, visual score 15 DAA (100%=total damage, 0%=no damage), read-out: Post-emergence herbicidal activity (percentage phytotoxicity) AVEFA POST.
The mark [10] stands for this setting: pre-emergence, 480 h, PRE-emergence, rate 250 g/ha, visual score 20 DAA (100%=total damage, 0%=no damage), read-out: Pre-emergence herbicidal activity (percentage phytotoxicity) AVEFA PRE.
The mark [11] stands for this setting: post-emergence, 360 h, Rate 250 g/ha, post-emergence, visual assessment 15 DAA, 100%=total damage, 0%=no damage, read-out: Post-emergence herbicidal activity (percentage phytotoxicity) ALOMY POST.
Setting [12] is: pre-emergence, 480 h, Rate 250 g/ha, pre-emergence, visual assessment 20 DAA, 100%=total damage, 0%=no damage, read-out: Pre-emergence herbicidal activity (percentage phytotoxicity) ALOMY PRE.
The mark [13] stands for this setting: post-emergence, 360 h, Rate 250 g/ha, post-emergence, visual assessment 15 DAA, 100%=total damage, 0%=no damage, read-out: Post-emergence herbicidal activity (percentage phytotoxicity) ECHCG POST.
Where [14] appears, read: pre-emergence, 480 h, Rate 250 g/ha, pre-emergence, visual assessment 20 DAA, 100%=total damage, 0%=no damage, read-out: Pre-emergence herbicidal activity (percentage phytotoxicity) ECHCG PRE.
Where [15] appears, read: post-emergence, 360 h, Rate 250 g/ha, post-emergence, visual assessment 15 DAA, 100%=total damage, 0%=no damage, read-out: Post-emergence herbicidal activity (percentage phytotoxicity) LOLPE POST.
Setting [16] is: pre-emergence, 480 h, Rate 250 g/ha, pre-emergence, visual assessment 20 DAA, 100%=total damage, 0%=no damage, read-out: Pre-emergence herbicidal activity (percentage phytotoxicity) LOLPE PRE.
The mark [17] stands for this setting: post-emergence, 360 h, Rate 250 g/ha, post-emergence, visual assessment 15 DAA, 100%=total damage, 0%=no damage, read-out: Post-emergence herbicidal activity (percentage phytotoxicity) AVEFA POST.
The mark [18] stands for this setting: pre-emergence, 480 h, Rate 250 g/ha, pre-emergence, visual assessment 20 DAA, 100%=total damage, 0%=no damage, read-out: Pre-emergence herbicidal activity (percentage phytotoxicity) AVEFA PRE.

The structures appear in SMILES notation. Like-named read-outs stand apart in the source and are kept apart here.

This is an account of results in patent publication US10206394B2, “Herbicidal compounds” (Syngenta Participations AG, priority 2014, dated 2019).

On to `CCc1cc(C)cc(C)c1C1C(=O)CC(CC(=O)NCc2ccc(OC)cc2)C1=O` (stereo not drawn) [Compound B253], for which the pest or weed control at 250 g/ha in assay [1] (setting [3]) came to 100%; in assay [1] (setting [4]) it was 100%; in assay [2] (setting [5]) it was 100%; in assay [2] (setting [6]), 90%; in the assay with Lolium perenne (LOLPE) (setting [7]) it was 100%; in the assay on Lolium perenne (LOLPE) (setting [8]), 90%. Also, the pest or weed control at 250 g/ha in the assay on Avena fatua (AVEFA) (setting [9]) was 100%; in the assay on Avena fatua (AVEFA) (setting [10]) it was 80%.
As for `COCC(C)NC(=O)CC1CC(=O)C(c2c(C)cc(-c3ccc(Cl)cn3)cc2C)C1=O` (stereo not drawn) [Compound B366], the pest or weed control at 250 g/ha worked out at 90% in assay [1] (setting [11]); 100% in assay [1] (setting [12]); 100% in assay [2] (setting [13]); 100% in assay [2] (setting [14]); 90% in the assay with Lolium perenne (LOLPE) (setting [15]); 100% with Lolium perenne (LOLPE) (setting [16]). The pest or weed control at 250 g/ha with Avena fatua (AVEFA) (setting [17]) and in the assay with Avena fatua (AVEFA) (setting [18]) was 100% in each case.
Consider `C/C=C/c1cc(C)c(C2C(=O)CC(CC(=O)NCc3ccc(C#N)cc3)C2=O)c(CC)c1` (stereo not drawn) [Compound B191], for which the pest or weed control at 250 g/ha was found to be 50% in assay [1] (setting [3]); 60% in assay [1] (setting [4]); 100% in assay [2] (setting [5]); 80% in assay [2] (setting [6]); 90% in the assay with Lolium perenne (LOLPE) (setting [7]); 70% with Lolium perenne (LOLPE) (setting [8]). Moreover, the pest or weed control at 250 g/ha amounted to 90% in the assay with Avena fatua (AVEFA) (setting [9]) and 40% in the assay on Avena fatua (AVEFA) (setting [10]).
Consider `C/C=C/c1cc(C)c(C2C(=O)CC(CC(=O)N(C)C(C)(C)C)C2=O)c(C)c1` (stereo not drawn) [Compound B249], for which the pest or weed control at 250 g/ha in assay [1] (setting [3]) was 70%; in assay [1] (setting [4]) it was 80%; in assay [2] (setting [5]), 80%; in assay [2] (setting [6]), 80%; in the assay with Lolium perenne (LOLPE) (setting [7]) it was 60%; in the assay on Lolium perenne (LOLPE) (setting [8]), 70%. Moreover, the results for the pest or weed control at 250 g/ha in the assay with Avena fatua (AVEFA) (setting [9]) and with Avena fatua (AVEFA) (setting [10]) were 70% and 30%, respectively.
Take `Cc1cccc(CNC(=O)CC2CC(=O)C(c3c(C)cc(C)cc3C)C2=O)c1` (stereo not drawn) [Compound A88]: the pest or weed control at 250 g/ha in assay [1] (post-emergence, 360 h, Rate 250 g/ha, post-emergence, assessed visually 15 DAA, 100%=total damage, 0%=no damage, read-out: Post-emergence herbicidal activity (percentage phytotoxicity) ALOMY POST) was 70%; in assay [1] (pre-emergence, 480 h, Rate 250 g/ha, pre-emergence, assessed visually 20 DAA, 100%=total damage, 0%=no damage, read-out: Pre-emergence herbicidal activity (percentage phytotoxicity) ALOMY PRE), 90%; in assay [2] (post-emergence, 360 h, Rate 250 g/ha, post-emergence, assessed visually 15 DAA, 100%=total damage, 0%=no damage, read-out: Post-emergence herbicidal activity (percentage phytotoxicity) ECHCG POST), 80%; in assay [2] (pre-emergence, 480 h, Rate 250 g/ha, pre-emergence, assessed visually 20 DAA, 100%=total damage, 0%=no damage, read-out: Pre-emergence herbicidal activity (percentage phytotoxicity) ECHCG PRE), 70%; in the assay on Lolium perenne (LOLPE) (post-emergence, 360 h, Rate 250 g/ha, post-emergence, assessed visually 15 DAA, 100%=total damage, 0%=no damage, read-out: Post-emergence herbicidal activity (percentage phytotoxicity) LOLPE POST), 100%; in the assay with Lolium perenne (LOLPE) (pre-emergence, 480 h, Rate 250 g/ha, pre-emergence, assessed visually 20 DAA, 100%=total damage, 0%=no damage, read-out: Pre-emergence herbicidal activity (percentage phytotoxicity) LOLPE PRE), 100%. Further, the pest or weed control at 250 g/ha in the assay with Avena fatua (AVEFA) (post-emergence, 360 h, Rate 250 g/ha, post-emergence, assessed visually 15 DAA, 100%=total damage, 0%=no damage, read-out: Post-emergence herbicidal activity (percentage phytotoxicity) AVEFA POST) is 10%; with Avena fatua (AVEFA) (pre-emergence, 480 h, Rate 250 g/ha, pre-emergence, assessed visually 20 DAA, 100%=total damage, 0%=no damage, read-out: Pre-emergence herbicidal activity (percentage phytotoxicity) AVEFA PRE), 0%.
In the case of `COCCN(CCOC)C(=O)CC1CC(=O)C(c2c(C)cc(-c3ncc(F)cn3)cc2C)C1=O` (stereo not drawn) [Compound B281], the pest or weed control at 250 g/ha in assay [1] (setting [3]) was 100%; in assay [1] (setting [4]), 80%; in assay [2] (setting [5]) it was 100%; in assay [2] (setting [6]), 100%; with Lolium perenne (LOLPE) (setting [7]), 90%; in the assay on Lolium perenne (LOLPE) (setting [8]), 80%. Moreover, the values for the pest or weed control at 250 g/ha in the assay with Avena fatua (AVEFA) (setting [9]) and in the assay with Avena fatua (AVEFA) (setting [10]) were 100% and 80%, respectively.
With `Cc1cc(-c2ccc(Cl)cn2)cc(C)c1C1C(=O)CC(CC(=O)N(C)C(C)(C)C)C1=O` (stereo not drawn) [Compound B368], the pest or weed control at 250 g/ha is 90% in assay [1] (setting [11]); 90% in assay [1] (setting [12]); 100% in assay [2] (setting [13]); 100% in assay [2] (setting [14]); 100% in the assay on Lolium perenne (LOLPE) (setting [15]); 100% in the assay with Lolium perenne (LOLPE) (setting [16]). For the same compound, the values for the pest or weed control at 250 g/ha with Avena fatua (AVEFA) (setting [17]) and in the assay with Avena fatua (AVEFA) (setting [18]) were 100% and 90%, respectively.
Turning to `Cc1cc(C)c(C2C(=O)CC(CC(=O)Nc3ccccn3)C2=O)c(C)c1` (stereo not drawn) [Compound B64], the pest or weed control at 250 g/ha in assay [1] (post-emergence, 360 h, 250 g/ha, post-emergence, 15 DAA, visual assessment (100%=total damage, 0%=no damage), read-out: Post-emergence herbicidal activity (percentage phytotoxicity) ALOMY POST) turned out to be 80%; in assay [1] (pre-emergence, 480 h, 250 g/ha, pre-emergence, 20 DAA, visual assessment (100%=total damage, 0%=no damage), read-out: Pre-emergence herbicidal activity (percentage phytotoxicity) ALOMY PRE) it was 80%; in assay [2] (post-emergence, 360 h, 250 g/ha, post-emergence, 15 DAA, visual assessment (100%=total damage, 0%=no damage), read-out: Post-emergence herbicidal activity (percentage phytotoxicity) ECHCG POST), 70%; in assay [2] (pre-emergence, 480 h, 250 g/ha, pre-emergence, 20 DAA, visual assessment (100%=total damage, 0%=no damage), read-out: Pre-emergence herbicidal activity (percentage phytotoxicity) ECHCG PRE), 80%; with Lolium perenne (LOLPE) (post-emergence, 360 h, 250 g/ha, post-emergence, 15 DAA, visual assessment (100%=total damage, 0%=no damage), read-out: Post-emergence herbicidal activity (percentage phytotoxicity) LOLPE POST), 80%; with Lolium perenne (LOLPE) (pre-emergence, 480 h, 250 g/ha, pre-emergence, 20 DAA, visual assessment (100%=total damage, 0%=no damage), read-out: Pre-emergence herbicidal activity (percentage phytotoxicity) LOLPE PRE) it was 70%. Also, the pest or weed control at 250 g/ha is 70% in the assay with Avena fatua (AVEFA) (post-emergence, 360 h, 250 g/ha, post-emergence, 15 DAA, visual assessment (100%=total damage, 0%=no damage), read-out: Post-emergence herbicidal activity (percentage phytotoxicity) AVEFA POST) and 50% in the assay with Avena fatua (AVEFA) (pre-emergence, 480 h, 250 g/ha, pre-emergence, 20 DAA, visual assessment (100%=total damage, 0%=no damage), read-out: Pre-emergence herbicidal activity (percentage phytotoxicity) AVEFA PRE).
Take `C#CC(C)(C)NC(=O)CC1CC(=O)C(c2c(C)cc(-n3cc(Cl)cn3)cc2C)C1=O` (stereo not drawn) [Compound B313]: the pest or weed control at 250 g/ha in assay [1] (setting [3]) was found to be 90%; in assay [1] (setting [4]), 90%; in assay [2] (setting [5]) it was 90%; in assay [2] (setting [6]), 100%; with Lolium perenne (LOLPE) (setting [7]) it was 70%; in the assay on Lolium perenne (LOLPE) (setting [8]) it was 90%. For the same compound, the pest or weed control at 250 g/ha in the assay on Avena fatua (AVEFA) (setting [9]) is 70%; in the assay on Avena fatua (AVEFA) (setting [10]), 80%.
